Assay: Observation of haloprogin / 2-octyl cyanoacrylate monomer composition after preparation
Format: physicochemical
Conditions: 30 mg haloprogin in 2 mL 2-octyl cyanoacrylate monomer
Protocol: A 2-octyl cyanoacrylate monomer composition is prepared by adding 30 mg of haloprogin, an anti-fungal agent, to 2 mL of 2-octyl cyanoacrylate monomer. The mixture is sealed in a glass vial and stirred. The characteristics of the composition are observed at about one minute after preparation and later at least twenty-four hours after preparation.

Clc1cc(Cl)c(OCC#CI)cc1Cl [haloprogin]
premature polymerization of the monomer (sealed glass vial, about one minute and at least twenty-four hours after preparation): does not cause premature polymerization
solubility in the monomer (observed at about one minute and at least twenty-four hours after preparation): soluble
